# Measured values: patent US11478451B1, “Macrocyclic chlorine substituted indole derivatives” (Bayer Aktiengesellschaft, priority 2017, dated 2022)
# Where two headings read alike, the source gives them in different places.
# Legend:
# SUDHL10 cells [1] = experiment: Induction of caspase-3/7 activity (Caspase-Glo 3/7), SUDHL10; format: cell-based; details: EC50, median, SUDHL10, 3 h treatment
# Procedure: (§1) Induction of Caspase-3/7 Activity Upon Treatment of Cells with Selected Compounds
# (§2) The BH3-domain of MCL-1 sequesters pro-apoptotic proteins, thereby inhibiting apoptosis. In contrast, MCL-1 inhibitors are expected to antagonize this effect leading to an increase in apoptosis, which can be determined by measuring the activity of caspase-3/7.
# (§3) The activity of caspase-3/7 was determined in DLBCL (Diffuse large B-cell lymphoma) cell lines (SUDHL5 and SUDHL10) upon treatment with different compounds, using the Caspase-Glo® 3/7 reagent from Promega (G8092).
# (§4) Rim wells were excluded. The cells were incubated for 3 h hours in a humidified incubator at 37° C.
# (§5) For the evaluation of the results, the background measured with “medium-only” was subtracted from all other values.
# SUDHL5 cells [2] = experiment: Induction of caspase-3/7 activity (Caspase-Glo 3/7), SUDHL5; format: cell-based; details: EC50, median, SUDHL5, 3 h treatment
# Procedure: as §1, §2, §3, §4, §5
# SUDHL5 cells [3] = experiment: Antiproliferation assay (CellTiter-Glo, 72 h), SUDHL5; format: cell-based; details: IC50, median, SUDHL5, 72 h, read-out: Antiproli SUDHL5 [M] (median)
# Procedure: (§6) Assessment of the Anti-Proliferative Effect of Compounds in Different Cell Lines
# (§7) The impact of compounds on the proliferation of different cell lines was assessed using the CellTiter-Glo® Luminescent Cell Viability reagent from Promega (G7573).
# (§8) In parallel, cells were plated in a reference (day 0) plate for time zero determination.
# (§9) Rim wells were excluded. The cells were incubated for 72 h hours in a humidified incubator at 37° C. The day 0 plate was measured by adding 30 μL/well of CTG solution (CellTiter-Glo® Luminescent Cell Viability reagent, Promega G7573) to time zero wells in the reference plate followed by a 10 minutes incubation and luminescence reading at 0.1 ms. using the PHERAstar FS microplate reader (BMG Labtech).
# (§10) After 72 h incubation, the treated plates were measured in the same way as the day 0 plate mentioned above.
# SUDHL5 cells [4] = experiment: Induction of cytotoxicity (CellTiter-Glo, 5 h), SUDHL5; details: SUDHL5, 5 h
# SUDHL10 cells [5] = experiment: Induction of cytotoxicity (CellTiter-Glo, 5 h), SUDHL10; details: SUDHL10, 5 h
# AMO-1 cells = experiment: Antiproliferation assay (CellTiter-Glo, 72 h), AMO-1; format: cell-based; details: IC50, median, AMO-1, 72 h, read-out: Antiproli AMO-1 [M] median
# Procedure: as §6, §7, §8, §9, §10
# [6] = Homo sapiens, SU-DHL-5, 5 h, read-out: Cytotox SUDHL5 [M] (median), IC50, median
# [7] = Homo sapiens, SU-DHL10, 5 h, read-out: Cytotox SUDHL10 [M] (median), IC50, median
# [8] = read-out: Cytotox SUDHL5 [M] (median), IC50, median
# [9] = read-out: Cytotox SUDHL10 [M] (median), IC50, median
SMILES,"EC50 (SUDHL5 cells [2]; Homo sapiens, SU-DHL-5, 3 h) [µM]","IC50 (SUDHL5 cells [3]; Homo sapiens, SU-DHL-5, 72 h) [M]",EC50 (SUDHL10 cells [1]) [µM],IC50 (SUDHL5 cells [3]) [M],IC50 (SUDHL5 cells [4]; [6]) [M],IC50 (SUDHL10 cells [5]; [7]) [M],"IC50 (AMO-1 cells; Homo sapiens, AMO1, 72 h) [M]",IC50 (SUDHL5 cells [4]; [8]) [M],IC50 (AMO-1 cells) [M],other results
"CCc1nn(CCN2CCOCC2)c2c1-c1c(Cl)ccc3c(CCCOc4cccc5ccccc45)c(C(=O)O)n(c13)C/C=C\CN(C)C2 (racemic) [Example 42, (rac)-(11Z)-4-chloro-3-ethyl-14-methyl-1-[2-(morpholin-4-yl)ethyl]-7-{3-[(naphthalen-1-yl)oxy]-propyl}-10,13,14,15-tetrahydro-1H-pyrazolo[3′,4′:8,9][1,6]diazacycloundecino[10,11,1-hi]indole-8-carboxylic acid]",2.8,2.7e-06,–,–,4e-06,–,–,–,–,"EC50 (SUDHL10 cells [1]; Homo sapiens, SU-DHL10, 3 h): 9.4 µM"
"CCc1c2c(nn1C)COCC1(CCn3c(C(=O)O)c(CCCOc4cccc5ccccc45)c4ccc(Cl)c-2c43)CC1 (racemic) [Example 72, (rac)-4′-chloro-3′-ethyl-2′-methyl-7′-{3-[(naphthalen-1-yl)oxy]propyl}-2′,10′,11′,15′-tetrahydro-13′H-spiro[cyclopropane-1,12′-pyrazolo[4′,3′:9,10][1,6]oxazacycloundecino[8,7,6-hi]indole]-8′-carboxylic acid]",0.73,8.8e-07,–,–,1e-06,2.5e-06,2.8e-06,–,–,"EC50 (SUDHL10 cells [1]; Homo sapiens, SU-DHL10, 3 h): 2.8 µM"
"CCc1c2c(nn1C)COCC1CC1Cn1c(C(=O)O)c(CCCOc3cccc4cc(F)ccc34)c3ccc(Cl)c-2c31 (racemic) [Example 106, (rac)-3-chloro-4-ethyl-14-{3-[(6-fluoronaphthalen-1-yl)oxy]propyl}-5-methyl-5,7,9a,10,10a,11-hexahydro-9H-cyclopropa[3,4]pyrazolo[4′,3′:9,10][1,6]oxazacycloundecino[8,7,6-hi]indole-13-carboxylic acid]",2.4,–,4.6,2.1e-06,–,–,–,2.8e-06,8.1e-06,IC50 (SUDHL10 cells [5]; [9]): 5.8e-06 M
"CCc1c2c(nn1C)CNCCCCn1c(C(=O)O)c(CCCOc3cccc4cc(F)ccc34)c3ccc(Cl)c-2c31 (racemic) [Example 130, (rac)-4-chloro-3-ethyl-7-{3-[(6-fluoronaphthalen-1-yl)oxy]propyl}-2-methyl-10,11,12,13,14,15-hexahydro-2H-pyrazolo[3′,4′:8,9][1,6]diazacycloundecino[10,11,1-hi]indole-8-carboxylic acid]",7.3,7.5e-06,–,–,7.1e-06,–,6.3e-06,–,–,–
"Cc1c2c(nn1C)COCC1CCC1Cn1c(C(=O)O)c(CCCOc3cccc4ccccc34)c3ccc(Cl)c-2c31 (single isomer, unassigned) [Example 80, 3-chloro-4,5-dimethyl-15-{3-[(naphthalen-1-yl)oxy]propyl}-5,7,9,9a,10,11,11a,12-octahydrocyclobuta[3,4]pyrazolo[4′,3′:9,10][1,6]oxazacycloundecino[8,7,6-hi]indole-14-carboxylic acid]",–,2.2e-07,–,–,–,–,1.9e-06,–,–,"EC50 (SUDHL10 cells [1]; listed as 080): 0.45 µM; EC50 (SUDHL5 cells [2]; listed as 080): 0.49 µM; IC50 (SUDHL5 cells [4]; read-out: Cytotox SUDHL5 [M] (median), IC50, median, listed as 080): 5.8e-07 M; IC50 (SUDHL10 cells [5]; read-out: Cytotox SUDHL10 [M] (median), IC50, median, listed as 080): 8.1e-07 M"
"CCc1c2c(nn1C)CN(C)CC(F)(F)CCn1c(C(=O)O)c(CCCOc3cccc4cc(F)ccc34)c3ccc(Cl)c-2c31 (single isomer, unassigned) [Example 128, 4-chloro-3-ethyl-12,12-difluoro-7-{3-[(6-fluoronaphthalen-1-yl)oxy]propyl}-2,14-dimethyl-10,11,12,13,14,15-hexahydro-2H-pyrazolo[3′,4′:8,9][1,6]diazacycloundecino[10,11,1-hi]indole-8-carboxylic acid]",–,–,3.4,4.1e-06,–,–,–,2.3e-06,6.5e-06,EC50 (SUDHL5 cells [2]): 2.1 µM; IC50 (SUDHL10 cells [5]; [9]): 3.6e-06 M
"CCc1c2c(nn1C)COCC1CC1Cn1c(C(=O)O)c(CCCOc3cccc4cc(F)ccc34)c3ccc(Cl)c-2c31 (single isomer, unassigned; (-)) [Example 108, (−)-3-chloro-4-ethyl-14-{3-[(6-fluoronaphthalen-1-yl)oxy]propyl}-5-methyl-5,7,9a,10,10a,11-hexahydro-9H-cyclopropa[3,4]pyrazolo[4′,3′:9,10][1,6]oxazacycloundecino[8,7,6-hi]indole-13-carboxylic acid]",–,–,7.8,1e-05,–,–,–,7e-06,1.3e-06,EC50 (SUDHL5 cells [2]): 6.3 µM
"CCc1c2c(nn1C)COCCCCn1c(C(=O)O)c(CCCOc3cccc4cc(F)ccc34)c3ccc(Cl)c-2c31 (single isomer, unassigned; enantiomer 1) [Example 69, 4-chloro-3-ethyl-7-{3-[(6-fluoronaphthalen-1-yl)oxy]propyl}-2-methyl-2,10,11,12,13,15-hexahydropyrazolo[4′,3′:9,10][1,6]oxazacycloundecino[8,7,6-hi]indole-8-carboxylic acid (Enantiomer 1)]",1.8,4.2e-06,–,–,2.3e-06,7.3e-06,–,–,–,"EC50 (SUDHL10 cells [1]; Homo sapiens, SU-DHL10, 3 h): 8.3 µM"

# Continued, in another order:
"EC50 (SUDHL5 cells [2]; Homo sapiens, SU-DHL-5, 3 h) [µM]","IC50 (SUDHL5 cells [3]; Homo sapiens, SU-DHL-5, 72 h) [M]",EC50 (SUDHL10 cells [1]) [µM],IC50 (SUDHL5 cells [3]) [M],SMILES,IC50 (SUDHL5 cells [4]; [6]) [M],IC50 (SUDHL10 cells [5]; [7]) [M],"IC50 (AMO-1 cells; Homo sapiens, AMO1, 72 h) [M]",IC50 (SUDHL5 cells [4]; [8]) [M],IC50 (AMO-1 cells) [M],other results
9.4,7.2e-06,–,–,"CCc1nn(CCN2CCOCC2)c2c1-c1c(Cl)ccc3c(CCCOc4cccc5ccccc45)c(C(=O)O)n(c13)CCCCN(C)C2 (racemic) [Example 45, (rac)-4-chloro-3-ethyl-14-methyl-1-[2-(morpholin-4-yl)ethyl]-7-{3-[(naphthalen-1-yl)oxy]propyl}-10,11,12,13,14,15-hexahydro-1H-pyrazolo[3′,4′:8,9][1,6]diazacycloundecino[10,11,1-hi]indole-8-carboxylic acid]",8.1e-06,–,–,–,–,–
–,6.7e-06,–,–,"CCc1c2c(nn1C)CCCCCCn1c(C(=O)O)c(CCCOc3cccc4ccccc34)c3ccc(Cl)c-2c31 (racemic) [Example 51, (rac)-4-chloro-3-ethyl-2-methyl-7-{3-[(naphthalen-1-yl)oxy]propyl}-10,11,12,13,14,15-hexa-hydro-2H-pyrazolo[4′,3′:4,5]azacycloundecino[3,2,1-hi]indole-8-carboxylic acid]",8.4e-06,8.6e-06,–,–,–,–
–,–,2.6,3.4e-06,"CCc1c2c(nn1C)CCCN(C)CCn1c(C(=O)O)c(CCCOc3cccc4cc(F)ccc34)c3ccc(Cl)c-2c31 (single isomer, unassigned) [Example 117, (−)-4-chloro-3-ethyl-7-{3-[(6-fluoronaphthalen-1-yl)oxy]propyl}-2,12-dimethyl-10,11,12,13,14,15-hexahydro-2H-pyrazolo[3′,4′:8,9][1,4]diazacycloundecino[10,11,1-hi]indole-8-carboxylic acid]",–,–,–,2.6e-06,1.2e-06,EC50 (SUDHL5 cells [2]): 2.4 µM; IC50 (SUDHL10 cells [5]; [9]): 2.3e-06 M
–,5.1e-06,–,–,"CCc1c2c(nn1C)CN(CCC1CCOCC1)CCCCn1c(C(=O)O)c(CCCOc3cccc4cc(F)ccc34)c3ccc(Cl)c-2c31 (single isomer, unassigned; enantiomer 2) [Example 137, 4-chloro-3-ethyl-7-{3-[(6-fluoronaphthalen-1-yl)oxy]propyl}-2-methyl-14-[2-(oxan-4-yl)ethyl]-10,11,12,13,14,15-hexahydro-2H-pyrazolo[3′,4′:8,9][1,6]diazacycloundecino[10,11,1-hi]indole-8-carboxylic acid N-ethylethanamine (Enantiomer 2)]",8.2e-06,7.7e-06,5e-06,–,–,–
